Data from ChEMBL document CHEMBL1144364, “Synthesis and biological activity of the tea catechin metabolites, M4 and M6 and their methoxy-derivatives” (Bioorg Med Chem Lett, 2005).
Active and inactive are the calls of the source. No cut-off for these calls is given here.

How the values were obtained:
HCT-116 [1] = assay: Percent inhibition of growth of human colon adenocarcinoma cells, HCT116 cells; type: functional
[2] = Percent inhibition of growth of human esophageal squamous cell carcinoma cells, KYSE150 cells; type: functional
[3] = Percent inhibition of growth of an immortalized rat intestinal epithelial cell line, IEC-6 cell line; type: functional
INT-407 (Homo sapiens) [4] = assay: Percent inhibition of growth of an immortalized human intestinal epithelial cells, INT-407 cells
HT-29 [5] = assay: Percent inhibition of growth of human colon adenocarcinoma cells, HT-29 cells; type: functional
Mus musculus [6] = species on record: Mus musculus; assay: Evaluated to inhibit the release of arachidonic acid and the production of nitric oxide(NO) by lipopolysaccharide (LPS)-stimulated murine macrophages (RAW264.7); NE=No effect; type: functional, organism-based
[7] = Percent inhibition of growth of human esophageal squamous cell carcinoma cells, KYSE150 cells, at 50 uM concentration (Range=20-40%); type: functional; details: KYSE-150
HT-29 [8] = assay: Percent inhibition of growth of human colon adenocarcinoma cells, HT-29 cells, at 50 uM concentration; NE=No effect; type: functional, cell-based
[9] = Inhibitory concentration against an immortalized rat intestinal epithelial cell line, IEC-6 cell line (Range=15-73); type: functional, cell-based
Mus musculus [10] = species on record: Mus musculus; assay: Evaluated to inhibit the release of arachidonic acid and the production of nitric oxide(NO) by lipopolysaccharide (LPS)-stimulated murine macrophages (RAW264.7); type: functional, organism-based
HT-29 [11] = assay: Inhibitory concentration against human colon adenocarcinoma cells, HT-29 cells (Range=15-73); type: functional, cell-based
HCT-116 [12] = assay: Inhibitory concentration against human colon adenocarcinoma cells, HCT116 cells (Range=15-73); type: functional, cell-based
INT-407 (Homo sapiens) [13] = assay: Inhibitory concentration against an immortalized human intestinal epithelial cells, INT-407 cells (Range=15-73); details: epithelial cell
[14] = Inhibitory concentration against human esophageal squamous cell carcinoma cells, KYSE150 cells (Range=15-73); type: functional

Compound: COc1cc(CC2CCC(=O)O2)cc(OC)c1OC (stereo not drawn)
- Inhibition (HCT-116 [1]): <20%
- Inhibition [2]: <20%
- Inhibition [3]: <20%
- Inhibition (INT-407 (Homo sapiens) [4]): <20%
- Inhibition (HT-29 [5]): <20%
- IC50 (Mus musculus [6]): Not Active

Compound: O=C1CCC(Cc2ccc(O)c(O)c2)O1 (stereo not drawn)
- inhibition at 50 µM [7]: 40%
- inhibition (HT-29 [8]): inactive

Compound: O=C1CCC(Cc2cc(O)c(O)c(O)c2)O1 (stereo not drawn)
- IC50 [9]: 73 µM
- IC50 (Mus musculus [10]): 20 µM
- IC50 (HT-29 [11]): 73 µM
- IC50 (HCT-116 [12]): 73 µM
- IC50 (INT-407 (Homo sapiens) [13]): 73 µM
- IC50 [14]: 73 µM

Compound: COc1ccc(CC2CCC(=O)O2)cc1O (stereo not drawn)
- inhibition at 50 µM [7]: 40%
- inhibition (HT-29 [8]): inactive

Compound: COc1ccc(CC2CCC(=O)O2)cc1OC (stereo not drawn)
- inhibition at 50 µM [7]: 40%
- inhibition (HT-29 [8]): inactive
